Assay results taken from US20220054643A1, “SAPONIN CONJUGATED TO EPITOPE-BINDING PROTEINS” (priority 2018, published 2022).

Key:
[1] = tested on: HeLa cells; test: cell viability assay (MTS); assay type: cell-based, human; settings: for concentration above which toxicity is seen as single compound: without EGFdianthin
Description: (§1) After treatment the cells were incubated for 72 hr at 37° C. before the cell viability was determined by a MTS-assay, performed according to the manufacturer's instruction (CellTiter 96® AQueous One Solution Cell Proliferation Assay, Promega). Briefly, the MTS solution was diluted 20× in DMEM without phenol red (PAN-Biotech GmbH) supplemented with 10% FBS (PAN-Biotech GmbH). The cells were washed once with 200 μL PBS per well, after which 100 μL diluted MTS solution was added per well.
(§2) The plate was incubated for approximately 20-30 minutes at 37° C. Subsequently, the optical density at 492 nm was measured on a Thermo Scientific Multiskan FC plate reader (Thermo Scientific). For quantification the background signal of ‘medium only’ wells was subtracted from all other wells, before the ratio of untreated/treated cells was calculated, by dividing the background corrected signal of untreated wells over the background corrected signal of the treated wells.

[2] = tested on: A431 cells; assay type: cell-based, human; settings: without EGFdianthin
Description: as §1, §2

[3] = tested on: A2058 cells; test: cell viability assay (MTS); assay type: cell-based, human; settings: without EGFdianthin
Description: as §1, §2

[4] = tested on: HER14 cells; test: viability assay (MTT) with HER14 cells; assay type: cell-based; settings: 0.1 nM dianthin-EGF in the presence of SA1641
Description: To test the efficacy of the invention, we conducted a viability assay with HER14 cells. These cells are fibroblasts stably transfected with the human epidermal growth factor receptor and therefore target cells for the targeted toxin dianthin-EGF. HER14 cells (2,000 cells/100 μL/well) were seeded into wells of 96-well-cell culture plates and incubated for 24 h in DMEM medium supplemented with 10% fetal calf serum and 1% penicillin/streptomycin at 37° C., 5% CO2 and 98% humidity. The different test substances (see results and FIG. 59) were then added in triplicates in a volume of 25 μL and supplemented with further 25 μL of medium. After an incubation of 72 h, 30 μL 3-(4,5-dimethylthiazol-2-yl)-2,5-diphenyltetrazolium bromide (0.5 mg/mL in water) was added per well and incubated for 2 h. Thereafter, the medium was carefully removed and replaced by an aqueous solution containing 10% (v/v) isopropanol, 5% (w/v) sodium dodecyl sulfate and 400 mM HCl, and incubated for 5 min. Solubilized formazan was photometrically quantitated at […] in a microplate reader (Spectra MAX 340 PC, Molecular Devices, Sunnyvale, Calif., USA). Untreated cells were normalized to 1 and all samples referred to the untreated control. Significance was determined by unpaired two-sample t-tests.

[5] = pH dependent hydrolysis of the hydrazone bond (MALDI-TOF-MS); assay type: physicochemical; settings: HCl solution at pH 3; MALDI-TOF-MS at two points in time
[6] = tested on: SK-BR-3, JIMT-1, MDA-MB-468, A431, CaSki, HeLa, A2058; test: control treatments, relative cell viability on various cancer cell lines; assay type: cell-based, human; settings: wide range of concentrations, up to 100.000 pM
Description: as §1, §2

Compound	concentration above which toxicity is seen as single compound [1]	concentration above which toxicity is seen as single compound [2]	concentration above which toxicity is seen as single compound [3]	further results
CC(=O)OC1C(C)OC(OC2C(C)OC(OC(=O)[C@]34CCC(C)(C)CC3C3=CCC5[C@@]6(C)CC[C@H](OC7OC(C(=O)O)C(O)C(OC8OCC(O)C(O)C8O)C7OC7OC(CO)C(O)C(O)C7O)[C@@](C)(C=O)C6CC[C@@]5(C)[C@]3(C)C[C@H]4O)C(OC3OC(C)C(OC4OCC(O)C(OC5OC(CO)C(O)C(O)C5O)C4O)C(O)C3O)C2O)C(O)C1OC1OCC(O)C(O)C1O (stereo partly shown) [SO1861]	strong cell viability reduction	strong cell viability reduction	strong cell viability reduction	–
C[C@@H]1O[C@@H](O[C@H]2[C@H](OC(=O)[C@]34CCC(C)(C)C[C@H]3C3=CC[C@@H]5[C@@]6(C)CC[C@H](O[C@H]7O[C@H](C(=O)O)[C@@H](O)[C@H](O[C@@H]8OC[C@@H](O)[C@H](O)[C@H]8O)[C@H]7O[C@@H]7O[C@H](CO)[C@H](O)[C@H](O)[C@H]7O)[C@@](C)(C=O)[C@@H]6CC[C@@]5(C)[C@]3(C)CC4)O[C@H](C)[C@H](O[C@@H]3O[C@H](C)[C@@H](O)[C@H](O)[C@H]3O)[C@@H]2O)[C@H](O)[C@H](O)[C@H]1O[C@@H]1OC[C@@H](O)[C@H](O[C@@H]2OC[C@@H](O)[C@H](O)[C@H]2O)[C@H]1O [SA1641]	–	–	–	cell viability [4]: death of all cells
CC(=O)OC1C(C)OC(OC2C(C)OC(OC(=O)[C@]34CCC(C)(C)CC3C3=CCC5[C@@]6(C)CC[C@H](OC7OC(C(=O)O)C(O)C(OC8OCC(O)C(O)C8O)C7OC7OC(CO)C(O)C(O)C7O)[C@@](C)(/C=N/NC(=O)CCCCCN7C(=O)C=CC7=O)C6CC[C@@]5(C)[C@]3(C)C[C@H]4O)C(OC3OC(C)C(OC4OCC(O)C(OC5OC(CO)C(O)C(O)C5O)C4O)C(O)C3O)C2O)C(O)C1OC1OCC(O)C(O)C1O (stereo partly shown) [SO1861-EMCH]	> 25.000 nM	> 25.000 nM	> 25.000 nM	hydrolysis of the hydrazone bond [5]: gets cleaved
saporin	–	–	–	influence on relative cell viability [6]: do not or hardly have any influence on cell viability
CCN(CC)CCCC(C)Nc1ccnc2cc(Cl)ccc12 (stereo not shown) [chloroquine, reference compound]	–	–	–	effect on SO1861-mediated endosomal escape of dianthin-EGF and cell killing ([1]; SO1861 + dianthin-EGF + 500 nM chloroquine / 500 nM PAMAM (native, thiolated, PEGylated) / 667 nM dendron): inhibit the SO1861-mediated endosomal escape
